Tests used:
[1] = Dissolution test by immersion into simulated gastric fluid (USP apparatus II), then pH raised to 7.2; type: physicochemical
Protocol: The dissolution profile of the trilayered tablets prepared as described in examples 1, 2 and 3 was determined by immersion into simulated gastric fluid (USP apparatus II for dissolution test).
After immersion, the tablets (n = 6) placed themselves on the bottom of the vessel and the development of CO2 bubbles which remained entrapped into the hydroxypropylmethylcellulose gel formed in contact with the aqueous medium was observed from layer A. At the same time, layer B rapidly disintegrated in correspondence with the side surface of the layer exposed to the simulated gastric fluid.
The dissolution profile of the trilayered tablets prepared as described in examples 6, and 7 was determined by immersion into simulated gastric fluid (USP apparatus II for dissolution test).

clinical = settings: for AUC(0-inf): AUCinf; for time plasma levels were maintained at plateau: three layer tablet of example 4, Figure 6
Protocol: A three layer tablet of gabapentin 375 mg and flurbiprofen 37.5 mg, prepared as described in example 4, was administered to 24 healthy male and female subjects, 18-55 years old, in fasting conditions and after a high fat meal in single dose according to a randomized cross-over design. The treatment periods were separated by a wash out interval of at least 5 days.
Each dose was taken with 240 mL of water in fasting conditions from at least 10 hours or 30 minutes after a standardized meal, which was high-caloric (approximately 1000 Kcal) and high-fat (approximately 50 percent of total caloric content of the meal).
Gabapentin and flurbiprofen plasma levels were determined by a validated HPLC/MS/MS analytical method at the following times: pre-dose, 0.5, 1, 1.5, 2, 3, 4, 5, 6, 7, 8, 10, 12, 16, 24 and 32 h post-dose.

[2] = Dissolution rate under simulated fasting and fed conditions (SGF pH 1.2, FaSSGF pH 1.6, FeSSGFm pH 5.0); type: physicochemical; settings: tablets of example 2
Protocol: The dissolution rate of trilayered tablets prepared as described in example 2, was evaluated also under simulated fasting and fed conditions. The evaluation was carried out under the following conditions: simulated gastric fluid at pH1.2 (SGF), simulated gastric fluid at pH 1.6 (FaSSGF) for fasting conditions and simulated gastric fluid at pH 5.0 (FeSSGFm) for fed conditions.

[3] = both, human, in vivo, Fed conditions (high fat meal), three layer tablet of example 4, single dose, arithmetic mean ± s.d., n=24
[4] = three layer tablet of example 4, single dose

For CC(C(=O)O)c1ccc(-c2ccccc2)c(F)c1 (stereo not shown) [flurbiprofen], the “release of flurbiprofen contained in layer C in simulated gastric fluid” value (“release … in simulated gastric fluid” for short) ([1]; tablets of example 1, before raising the pH) was “not released in the first hour”, the “release of flurbiprofen contained in layer C after having raised the pH to 7.2” value (shortened to “release of flurbiprofen contained … to 7.2”) ([1]; tablets of example 1, in 5 hours, linear release) was 100% and the “release of flurbiprofen contained … to 7.2” value ([1]; tablets of example 2, in 6 hours, linear release) was 90%. The “release … in simulated gastric fluid” value ([1]; tablets of example 2, pH 1.2) was “not released at pH 1.2”, the “release of flurbiprofen contained … to 7.2” value ([1]; tablets of example 3, in 6 hours, linear release) was 90% and the “release … in simulated gastric fluid” value ([1]; tablets of example 3, pH 1.2) was “not released at pH 1.2”. The “release … in simulated gastric fluid” value ([1]; tablets of example 6, before raising the pH) was “not released in the first hour”, the “release of flurbiprofen contained … to 7.2” value ([1]; tablets of example 6, in 5 hours) was 100% and the “release of flurbiprofen contained … to 7.2” value ([1]; tablets of example 7, in 7 hours, linear release) was 90%. For the same compound, the “release … in simulated gastric fluid” value ([1]; tablets of example 7, pH 1.2) was “not released at pH 1.2”, the “Ratio of geometric means, AUCinf, Test / Reference (Fed / fasting)” value (clinical; both, human, in vivo) was 98% and the “Ratio of geometric means, Cmax, Test / Reference (Fed / fasting)” value (clinical; both, human, in vivo) was 157%. The “time after intake up to which release was very low” value (clinical; both, human, in vivo) was “up to 2 hours”, the “time post dose at which plasma levels reached a plateau” value (clinical; both, human, in vivo) was “around 4 hour” and the AUC(0-inf) (clinical; both, human, in vivo) was 35700 ± 13200 ng·h/mL. It also gave a Tmax (clinical; both, human, in vivo) of 12 h.

For NCC1(CC(=O)O)CCCCC1 [gabapentin], the “release time of gabapentin contained in layer B” value (from here on “release time … in layer B”) ([1]; tablets of example 1) was no more than 5 min, the “release time of remaining dose of gabapentin contained in layer A” value (“release time of remaining dose … in layer A” below) ([1]; tablets of example 1, slow prolonged release) was “about 8 hours” and the “release time … in layer B” value ([1]; tablets of example 2) was no more than 15 min. The “release time of remaining dose … in layer A” value ([1]; tablets of example 2, slow prolonged release) was “about 9 hours”, the “release time … in layer B” value ([1]; tablets of example 3) was no more than 15 min and the “release time of remaining dose … in layer A” value ([1]; tablets of example 3, slow prolonged release) was “about 9 hours”. The “release time … in layer B” value ([1]; tablets of example 6) was no more than 15 min, the “release of remaining dose of gabapentin contained in layer A” value ([1]; tablets of example 6, in about 9 hours, slow prolonged release) was 90% and the “release time … in layer B” value ([1]; tablets of example 7) was no more than 15 min. The “release time of remaining dose … in layer A” value ([1]; tablets of example 7, slow prolonged release) was “about 9 hours”, the AUC(0-inf) (clinical; both, human, in vivo, Fasting conditions, three layer tablet of example 4, single dose, arithmetic mean ± s.d., n=24) was 24100 ± 8150 ng·h/mL and the AUC(0-inf) (clinical; [3]) was 39200 ± 9070 ng·h/mL. It also gave a Cmax (clinical; both, human, in vivo, Fasting conditions, three layer tablet of example 4 (gabapentin 375 mg, flurbiprofen 37.5 mg), single dose, arithmetic mean ± s.d., n=24) of 2340 ± 748 ng/mL, a Cmax (clinical; [3]) of 3080 ± 727 ng/mL and a Tmax (clinical; both, human, in vivo, Fasting conditions, three layer tablet of example 4, single dose, median (min - max), n=24) of 4 h. The Tmax (clinical; both, human, in vivo, Fed conditions (high fat meal), three layer tablet of example 4, single dose, median (min - max), n=24) was 5 h, the “time plasma levels were maintained at plateau” value (clinical; fasting conditions) was “about 4 hours” and the “time plasma levels were maintained at plateau” value (clinical; fed conditions) was 8 h. The “Ratio of geometric means, AUCinf, Test / Reference (Fed / fasting)” value (clinical; [4]) was 167%, the “Ratio of geometric means, Cmax, Test / Reference (Fed / fasting)” value (clinical; [4]) was 136% and the “f2 factor, similarity index between SGF and FaSSGF release profiles” value ([2]; pH 1.2 vs pH 1.6) was 83. For the same compound, the “f2 factor, similarity index between SGF and FeSSGFm release profiles” value ([2]; pH 1.2 vs pH 5.0) was 65.8, the “f2 factor, similarity index between FaSSFG and FeSSGFm release profiles” value ([2]; pH 1.6 vs pH 5.0) was 55.7 and the “comparison of dissolution profiles in SGF, FaSSGF and FeSSGFm” value ([2]; result in words) was “did not show significant differences”.

Source: patent EP2874610B1, “MULTILAYERED PHARMACEUTICAL FORMULATION” (Recordati Industria Chimica E Farmaceutica SPA, priority 2012, dated 2014)
